Like-named read-outs stand apart in the source and are kept apart here.

Data set [1] is described as follows: in vitro. Particulars: human, HaCaT keratinocytes.
Experimental: (§5) The cells were then incubated for 72 hours. Percentage cytotoxicity was determined using MTT assay.
Data set [2] deals with Human Keratinocytes (HaCaT). The data set can be described thus: In vitro combination methotrexate and IS181 (MTT). The note with it: for 50% Inhibition (concentration of MTX): 72 h.
Experimental: as §5
The nature of data set [3]: Cell viability of THP-1 (MTT). The note with it: human. The data set is classed as cell-based, Human. How it is done: (§1) Cell lines: Human monocytic cell line (THP-1); test item: IS181: treatment regimen; single addition—24 hours; concentration range: 10 μg/ml-5000 μg/ml. A) Identification of non-cytotoxic concentrations: THP-1 cells were treated with IS181 for 24 hours; effect on cell viability was assessed by MTT assay; concentrations leading to >75% cell viability were selected for IL-23 assay. […] Positive control: curcumin. […] Since supernatants corresponding to 5 concentrations were to be tested for […], we also tested 1 mg/ml.

Data set [4] is described as follows: Cell viability of splenocytes (MTT). In kind it is cell-based, mouse. Particulars: mouse. How it is done:
(§2) Cell lines: mouse splenocytes; test item: IS181; treatment regimen: single addition—24 hours; concentration range: 10 μg/ml-5000 μg/ml.A) Identification of non-cytotoxic concentrations: splenocytes were treated with IS181 for 24 hours. Effect on cell viability was assessed by MTT assay. Concentrations leading to >75% cell viability were selected for IL-17 assay. B) IL-17 assay: splenocytes were treated with IS181 in presence of ConA stimulation for 24 hours. Supernatants were collected and stored at −20° C. till analysed. Levels of IL-17 were analysed in supernatants by ELISA. Percent inhibition of IL-17 secretion was calculated with reference to ConA treated levels. Positive control: curcumin.

For data set [5], the system named is IL-23. The data set can be described thus: IL-23 secretion in LPS+IFN-γ stimulated THP-1. The data set is classed as cell-based, Human. The note with it: THP-1 + LPS + IFN-γ, 24 h. The method, then:
as §1

Data set [6] has as its system IL-17. Nature of the data set: IL-17 secretion in ConA stimulated splenocytes. In kind it is cell-based, mouse. The note with it: splenocytes + ConA, 24 h. The method, then:
as §2

Data set [7] deals with Human Keratinocytes (HaCaT). Nature of the data set: Annexin-V assay. The data set is classed as cell-based. Particulars: 10 μM-50 μM. How it is done:
Cell lines: Human Keratinocytes (HaCaT); test Item (TI): IS181; Treatment regimen: treated twice (once after 24 hours)-48 hours; concentration range: 100 6 g/ml-5000 6 g/ml. […] (c) cells were treated with IS181 for 24 hours; (d) after 24 hours, cells were again treated with IS181 for 24 hours; (e) after 48 hours of first treatment, cells were stained with Annexin-V reagent and acquired on flow cytometer; (f) fold increase in apoptotic cells (early and late apoptotic) and necrotic cells was calculated with respect to untreated control cells. Positive control: Curcumin. […] (FIG. 4)

For data set [8], the system named is VEGF. Nature of the data set: VEGF inhibition in keratinocytes (ELISA). The note with it: HaCaT. The data set is classed as cell-based, Human. The method, then:
Cell lines: Human Keratinocytes (HaCaT); test item: IS181; treatment regimen: single addition—24 hours; concentration range: 0.1 μg/ml-100 μg/ml. […] Cells were serum-starved for another 24 hours (0% FBS). Cells were treated with IS181 for 24 hours. Supernatants were collected and stored at −20° C. till analysed. Levels of VEGF were analysed in supernatants by ELISA. Percent inhibition of VEGF secretion was calculated with reference to untreated levels. Positive control: curcumin; retinoic acid (at non-cytotoxic concentrations).

Data set [9] has as its system Human endothelial cells (EA.hy 926). Nature of the data set: Inhibition of FBS stimulated endothelial cell proliferation (MTT). The data set is classed as cell-based. How it is done: Cell line: Human endothelial cells (EA.hy 926); test item: IS 181: treatment regimen: multiple additions (3)-72 hours; concentration range: 1 6 g/ml to 5000 6 g/ml (triplicate wells); sera condition: medium containing 10% FBS. […] The cells were then subjected to complete serum starvation. The cells were retreated with 10% FBS to stimulate cellular proliferation. […] Inhibition of FBS stimulated cell proliferation was measured using MTT assay. End point: percentage inhibition of FBS stimulated cell proliferation. Positive controls: anthralin; paclitaxel.

The test system is the same in data set [10]. Nature of the data set: Inhibition of endothelial cell migration (wound). The data set is classed as cell-based. The note with it: Homo sapiens, EA.hy 926; EA.hy926, 14 h, 10 nM; read-out: % Inhibition of migration with respect to respective 0 h control. The method, then: Cell line: Human endothelial cells (EA.hy 926); test item: IS 181; treatment regimen: single addition; concentration range: 0.1 μg/ml-1 mg/ml; sera condition: medium containing 10% FBS. […] The cells were then subjected to serum starved with medium containing 1% FBS for 24 hours. 24 hours post serum starvation, the wounds (straight line) were created in the middle of the well using a sterile 200 μl pipette tip. Cells were washed twice using DMEM followed by treatment with different concentrations of IS 181 in DMEM containing 10% FBS. Images of wound were taken at 0 h and 14 h at three points in single well and distance of wound closure was measured using Image J software. End point: image analysis of cell migration of different concentrations of IS 181 treated cells at 0 hour and after 14 hours of treatment. Percentage inhibition in cell migration of different concentrations of IS 181 treated cells were calculated after 14 h of treatment with respect to respective 0 hours (FIG. 13). […] (FIGS. 14A-14B).

In data set [11] the test system is HaCaT (Human keratinocyte). The data set can be described thus: LDH enzyme release assay. The data set is classed as cell-based. The method, then: (§3) For testing Apoptosis the Human Keratinocytes (HaCaT) cell line has been employed. The growth conditions are DMEM containing 1% FBS. […] Test concentration range is IS181 is tested at the highest (Qualitative analysis) effective concentrations selected on the basis of Quantitative JC-1 assay. The method of estimation is Mitochondrial membrane depolarization by JC-1 assay (Early apoptosis), LDH enzyme release (Necrosis). Treatment regimen & time points are JC-1 assay—Single addition, 20 h; LDH assay—Single addition, 24 h; Positive control: Triton-X-100, Doxorubicin-hydrochloride
End-point: Percentage increase in LDH activity in treated cells with respect to untreated.

Data set [12] concerns HaCaT (Human keratinocyte) cell line. Nature of the data set: Mitochondrial membrane potential by JC-1 assay. In kind it is cell-based. How it is done:
as §3
Quantitative effect on Δψm (Red fluorescence/Green fluorescence) in HaCaT cells post 20 hours of treatment. […] Evaluation (Qualitative and quantitative) of differential JC-1 staining in treated cells after 20 h on incubation with the test peptides.

Data set [13] has as its system Human melanoma (SK-MEL-28). Nature of the data set: Cell viability (MTT assay) in SK-MEL-28. The data set is classed as cell-based. How it is done: (§4) Cell Lines/Cells: Human Keratinocytes (HaCaT); Human melanoma (SK-MEL-28); Human PBMCs. Test Item: IS181 Treatment regimen: Single addition—24 h, ^#Multiple additions (3)−72 h; Concentration range: 1 ng/ml-2 mg/ml (triplicate wells); Sera Condition: […] Method of estimation: MTT assay. […] Positive control: Triton-X-100, Doxorubicin Hydrochloride.

Data set [14] relates to Human PBMCs. Nature of the data set: Cell viability (MTT assay) in PBMCs. The data set is classed as cell-based. The method, then:
as §4

As to `CN(Cc1cnc2nc(N)nc(N)c2n1)c1ccc(C(=O)N[C@@H](CCC(=O)O)C(=O)O)cc1` [MTX, methotrexate], in data set [1], the cytotoxicity at 72 h, 0.01 µM amounted to 12.3%. For the same compound, the cytotoxicity at 72 h, 0.1 µM in data set [1] was determined as 1.9%. The compound also returned a cytotoxicity at 72 h, 0.25 µM in data set [1] of 21.3%. Also, the cytotoxicity at 72 h, 0.5 µM in data set [1] was found to be 23.9%. Moreover, in data set [1], the cytotoxicity at 72 h, 1 µM turned out to be 27.7%. The compound also gave a cytotoxicity at 72 h, 5 µM in data set [1] of 22%. The “50% Inhibition (concentration of MTX)” value in data set [2] (with IS181 10 μg/ml) and in [2] (with IS181 50 μg/ml) was 50% inhibition was still not achieved in each case. The IC50 in data set [2] (read-out: 50% Inhibition (concentration of MTX), 72 h, MTX Alone) was over 5000 nM; in [2] (read-out: 50% Inhibition (concentration of MTX), 72 h, with IS181 10 μg/ml) it was over 5000 nM; in data set [2] (read-out: 50% Inhibition (concentration of MTX), 72 h, with IS181 50 μg/ml), over 5000 nM; in data set [2] (read-out: 50% Inhibition (concentration of MTX), 72 h, with IS181 500 μg/ml), 1000 to 5000 nM; in data set [2] (read-out: 50% Inhibition (concentration of MTX), 72 h, with IS181 1000 μg/ml), 10 nM; in data set [2] (read-out: 50% Inhibition (concentration of MTX), 72 h, with IS181 2000 μg/ml), under 10 nM. The IC50 in data set [2] (read-out: 50% Inhibition (concentration of MTX), 72 h, with IS181 5000 μg/ml) was under 10 nM.

As for `COc1cc(/C=C/C(=O)CC(=O)/C=C/c2ccc(O)c(OC)c2)ccc1O` [Curcumin, reference compound], the viability at 24 h, 1 µM was determined as 94.7% in data set [3] and 97.5% in data set [4]. The viability at 24 h, 10 µM in [3] came to 103%; in [4] it was 82%. In addition, the viability at 24 h, 20 µM was determined as 107% in [3] and 40.4% in data set [4]. For the same compound, the viability at 24 h in data set [4] is over 75%. For the same compound, the inhibition at 1 µM came to 91.6% in [5] (Homo sapiens, 1 μM, read-out: % Inhibition of IL-23 wrt Control (LPS + IFN-γ)); 40.5% in [6] (Mus musculus, Splenocyte, 1 μM, read-out: % Inhibition of IL-17 wrt Control (ConA)); 14.9% in data set [8] (Homo sapiens, 24 h, 1 μM, read-out: % Inhibition of VEGF wrt untreated (basal) levels). Besides, the inhibition at 10 µM in data set [5] (Homo sapiens, 10 μM, read-out: % Inhibition of IL-23 wrt Control (LPS + IFN-γ)) was found to be 90.6%; in data set [6] (Mus musculus, Splenocyte, 10 μM, read-out: % Inhibition of IL-17 wrt Control (ConA)), 42.5%. For the same compound, the “Conc. of IL-23” value is 7.1 pg/mL in [5] (1 μM) and 7.9 pg/mL in data set [5] (10 μM). In addition, the “Conc. of IL-17” value in data set [6] (1 μM) was 27.7 pg/mL; in data set [6] (10 μM) it was 26.7 pg/mL. For the same compound, the “increase in early apoptotic cells” value in data set [7] is given as 12.8-152.5 fold. For the same compound, the “increase in late apoptotic cells” value in [7] is reported as 2.4-138.4 fold. Besides, the VEGF inhibition result in [8] (20 uM) is given as “did not result in any VEGF inhibition”. In data set [8] (24 h, 1 μM), the “Conc. of VEGF” value is 3059.1 pg/mL.

In the case of `CC(=O)O[C@H]1C(=O)[C@@]2(C)[C@H]([C@H](OC(=O)c3ccccc3)[C@]3(O)C[C@H](OC(=O)[C@H](O)[C@@H](NC(=O)c4ccccc4)c4ccccc4)C(C)=C1C3(C)C)[C@]1(OC(C)=O)CO[C@@H]1C[C@@H]2O` [Paclitaxel], the “Absorbance (Mean ± SD) at 540 nm” value in data set [9] (EA.hy926, 10 nM) amounted to 0.36 ± 0.012; in data set [9] (EA.hy926, 50 nM), 0.23 ± 0.008; in [9] (EA.hy926, 100 nM), 0.19 ± 0.006; in data set [9] (EA.hy926, 500 nM), 0.16 ± 0.003; in [9] (EA.hy926, 1000 nM), 0.06 ± 0.001. The inhibition at 0.01 µM in data set [9] (Homo sapiens, EA.hy 926, EA.hy926, 10 nM, read-out: ¾ Inhibition of FBS stimulated cell growth) turned out to be 27.6%; in [10] it was 71%. Moreover, the inhibition at 0.05 µM in data set [9] (Homo sapiens, EA.hy 926, EA.hy926, 50 nM, read-out: ¾ Inhibition of FBS stimulated cell growth) was 58.9%. Moreover, the inhibition at 0.1 µM in data set [9] (Homo sapiens, EA.hy 926, EA.hy926, 100 nM, read-out: ¾ Inhibition of FBS stimulated cell growth) was 62.7%. Moreover, in data set [9] (Homo sapiens, EA.hy 926, EA.hy926, 500 nM, read-out: ¾ Inhibition of FBS stimulated cell growth), the inhibition at 0.5 µM amounted to 70.1%. The inhibition at 1 µM in [9] (Homo sapiens, EA.hy 926, EA.hy926, 1000 nM, read-out: ¾ Inhibition of FBS stimulated cell growth) was 89.4%.

Regarding Triton X-100 [reference compound], in [11] (0.01%), the “% Increase with respect to untreated (LDH)” value is −30.27% and the “LDH Activity (mU/ml)” value is 44.11 mU/ml. Also, in [11] (0.1%), the “% Increase with respect to untreated (LDH)” value is listed as “***95.84%” and the “LDH Activity (mU/ml)” value is recorded as 123.88 mU/ml. Moreover, in [12] (0.01%), the “Green fluorescence intensity (RFU)” value came out at 20.5 ± 17.68 RFU, the “Red fluorescence intensity (RFU)” value is given as 33.25 ± 32.17 RFU and the “Red fluorescence intensity/Green fluorescence intensity” value is “*1.62”. Further, in [12] (0.1%), the “Green fluorescence intensity (RFU)” value is on record as 22.33 RFU, the “Red fluorescence intensity (RFU)” value worked out at 16.33 RFU and the “Red fluorescence intensity/Green fluorescence intensity” value is “*0.73”. This compound displayed a cytotoxicity in [13] of over 90%. Further, in data set [14], the cytotoxicity was 70% to 77%.

(Values after patent US10538561B2, “Peptide for treating inflammatory diseases” (priority 2015, dated 2020).)
